{
  "source": "patent US20090170091A1",
  "about": "“Method For Predicting Biological Systems Responses” (priority 2006, published 2009)",
  "key": {"HeLa cells": {"tested_on": "HeLa cells", "settings": "HeLa cells after camptothecin treatment; mRNA abundance; cited from earlier work"}, "HepG2 cells": {"tested_on": "HepG2 cells", "experiment": "CellCipher cytotox profile, multiplexed HCS toxicity panel (11 cytotoxicity parameters, two plate assay)", "assay_type": "cell-based", "text": "This example pertains to a multiplexed toxicity HCS profiling panel. It describes the performance of a specific CellCipher™ cytotox profile which is designed to measure 11 cytotoxicity parameters using a two plate assay.\nAssay and Reagent Specifications. […] The antibody and fluorescent indicators of cell physiology reagent specifications for Cytotox Profile Plate 1 are contained in Table 7 whereas the antibody and fluorescent indicators of cell physiology reagent specifications for Cytotox Profile Plate 2 are contained in Table 8. Finally, the assay buffer specifications for both Cytotox Profile Plates 1 and 2 are contained in Table 9.\nHepG2 cell handling and plating procedure. HepG2 cells were obtained from the American Type Cell Collection (cat no. HB-8065) and an original seed stock was prepared from one vial containing 1×10^+6 cells. From the seed stock, a working stock was prepared using standard procedures. Cells were thawed form the working stock when required and maintained in culture for 20 passages before being discarded. […]\nCell plating for cytotox profile. For the cytotox profile, thin bottom 384-well microplates were used that are compatible with the high numerical aperture optics available on most HCS readers. […] Cells were passaged by trypsinization, including trituration, and viable cells counted. […]"}},
  "note": "Read-outs that look alike come from different tables or passages of the source.",
  "data": [
    {"smiles": "CC[C@@]1(O)C(=O)OCc2c1cc1n(c2=O)Cc2cc3ccccc3nc2-1", "note": "[camptothecin]", "values": [
      {"measurement": "Double strand DNA break repair genes, change", "setting": "HeLa cells", "value": 4.0, "unit": "%"},
      {"measurement": "Histone genes, change", "setting": "HeLa cells", "value": 8.1, "unit": "%"},
      {"measurement": "Mitosis related genes, change", "setting": "HeLa cells", "value": 9.7, "unit": "%"},
      {"measurement": "NF-κB inducible genes, change", "setting": "HeLa cells", "value": 12.5, "unit": "%"},
      {"measurement": "Nuclear compartment genes, change", "setting": "HeLa cells", "value": 16.5, "unit": "%"},
      {"measurement": "p53-inducible genes, change", "setting": "HeLa cells", "value": 28.1, "unit": "%"}
    ]},
    {"smiles": "CC[C@H](C)C(=O)O[C@H]1C[C@@H](C)C=C2C=C[C@H](C)[C@H](CC[C@@H]3C[C@@H](O)CC(=O)O3)[C@H]21", "note": "[lovastatin]", "values": [
      {"measurement": "degree of activity (IC50 from KS dose-response fits) across the cytotox profile assays", "setting": "HepG2 cells; HepG2 cells, 11 features at 30 min, 24 h and 72 h, FIG. 9 heat map clusters", "value": "moderate degree of activity (in the μM range) in many assays"}
    ]},
    {"smiles": "CC[C@H](C)C(=O)O[C@H]1CCC=C2C=C[C@H](C)[C@H](CC[C@@H]3C[C@@H](O)CC(=O)O3)[C@H]21", "note": "[mevastatin]", "values": [
      {"measurement": "degree of activity (IC50 from KS dose-response fits) across the cytotox profile assays", "setting": "HepG2 cells", "value": "moderate degree of activity (in the μM range) in many assays"}
    ]}
  ]
}
